Assay results as given in US20150344426A1, “COMPOUNDS AND THERAPEUTIC USES THEREOF” (ALZHEIMER'S INSTITUTE OF AMERICA, INC., priority 2012, published 2015).
Values joined by “and” are separate entries in the source; they are usually repeats but may differ in a detail not shown here. Equal entries are not always repeated. Where two headings read alike, the source gives them in different places.

Legend:
[1] = test system: HT1080 human fibrosarcoma cancer cells; assay: Anti-tumor activity in HT1080 human fibrosarcoma xenograft with twice daily dosing; assay type: in vivo; conditions: for tumor regression: by Day 8
Protocol: One million HT1080 cells were implanted subcutaneously in the right flank of female nude mice (Crl:NU-Fox1^nu). When the median tumor volume (MTV) was approximately 209 mm^3, mice were randomized into four cohorts of ten animals. […] All cohorts were dosed twice daily for 7 days. The mice were observed daily for mortality and signs of toxicity. Tumor volumes and body weights were determined from Days 1 to 22. The results are depicted in FIG. 4.

[2] = Experiment 1: hepatic portal vein samples of rats after oral Example Compound 35; assay type: in vivo, female Sprague-Dawley rats; conditions: 20 mg/kg, portal vein; for [Par. Cmp. A]: listed as Par. Cmp. A
Description: It is believed that Example Compound 35 metabolizes in vivo into Parent Compound A (i.e., it is believed that Example Compound 35 is a prodrug of Parent Compound A). The objective of this study was to determine the concentration of Example Compound 35 and Parent Compound A in hepatic portal vein samples of female Sprague-Dawley rats following oral administration of only Example Compound 35, and to quantify the extent of transport into hepatic portal circulation, if any, of Example Compound 35. A second objective was to determine the relative bioavailability of Parent Compound A in the portal vein following oral administration of Example Compound 35.
Experiment 1. Three female Sprague Dawley rats (200-215 g, Harlan Laboratories, Indianapolis, Ind.) with cannulae implanted surgically in the portal vein for blood sampling were used in this study. Example Compound 35, formulated in 50 mM Glycine pH 3.0 with 0.5% HPMC and 0.05% Tween-80, was administered by oral gavage (PO) at a dose of 20 mg/kg in a volume of 2 mL/kg. This dose is the molar equivalent of a 13.5 mg/kg dose of Parent Compound A. Portal blood samples were collected through the portal vein cannula from each animal at 0.25, 0.5, 1, 2, 4, and 8 hours following administration of compound. Samples were split into two fractions and one was supplemented with citrate buffer (final concentration 100 mM, pH 3.0) to stabilize Example Compound 35 and stop conversion of Example Compound 35 to Parent Compound A ex vivo during analysis. Samples were then processed to generate plasma and analyzed for Example Compound 35 by LC-MS/MS. Plasma derived from the second aliquot of blood was analyzed for Parent Compound A.
Pharmacokinetic parameters estimated for Parent Compound A included the maximum observed drug concentration (Cmax), time of maximum observed drug concentration (Tmax), apparent terminal half-life (t1/2), area under the concentration-time curve from time zero to 8 hours postdose (AUC(0-8)), and area under the concentration-time curve extrapolated to infinity (AUC(0-inf)). The bioavailability (% F) of Parent Compound A in portal vein samples relative to IV administration was also estimated.
Plasma samples were analyzed for Example Compound 35 or Parent Compound A concentration using a LC-MS/MS method. All sample runs met standard acceptance criteria for discovery purposes, and were based on a standard curve containing at least 7 points. At least half of quality control samples at each of the three concentrations tested, and two thirds of the entire quality control sample pool, were within 15% of their theoretical value. The r^2 value for each standard curve was ≧0.99. The quantitation range for the Example Compound 35 and Parent Compound A assays was 1 to 100 ng/mL and 5 to 2,500 ng/mL, respectively, using a 0.05 mL sample volume.
The data were entered into the PK software package WinNonlin® version 5.1.1. A complete data check was conducted to verify the accuracy of data entry.
Pharmacokinetic parameters were estimated on median plasma concentrations using extravascular input (PO). Nominal collection times after administration of compound were used for PK analyses. The use of a non-compartmental model provided an adequate fit of the data. Pharmacokinetic parameters estimated for Parent Compound A included the maximum observed drug concentration (Cmax), time of maximum observed drug concentration (Tmax), apparent terminal half-life (t1/2), apparent volume of distribution (Vz obs), apparent clearance (C1 obs), area under the concentration-time curve from time zero to 8 hours postdose of Example Compound 35 […], and area under the concentration-time curve extrapolated to infinity (AUC(0-inf)). Example Compound 35 was detected in only one 0.25 hour hepatic portal vein sample at 1.29 ng/mL. Any Example Compound 35 present in all of the other samples was below the quantitation limit of 1 ng/mL and pharmacokinetic parameters were not determined for those samples. […]

O=C(NCc1cccnc1)Nc1ccc(OCCc2ccccc2-c2ccccc2)cc1 [Parent Compound A, 1-{4-[2-(Biphenyl-2-yl)ethoxy]phenyl}-3-(pyridin-3-ylmethyl)urea]
tumor growth inhibition relative to vehicle ([1]; 3 mg/kg orally twice daily for seven days, Day 21): 60%
MTV increase ([1]; 3 mg/kg orally twice daily for seven days, end of dosing, Day 9): 221%
MTV increase ([1]; 3 mg/kg orally twice daily for seven days, end of the study, Day 21): 622%
tumor growth inhibition relative to vehicle ([1]; 4 mg/kg orally twice daily for seven days, Day 21): 81%
tumor regression ([1]; 4 mg/kg orally twice daily for seven days): 13%
MTV as % of the initial value ([1]; 4 mg/kg orally twice daily for seven days, end of dosing, Day 9): 87%
MTV increase ([1]; 4 mg/kg orally twice daily for seven days, end of the study, Day 21): 296%
tumor growth inhibition relative to vehicle ([1]; 5 mg/kg orally twice daily for seven days, Day 21): 85%
tumor regression ([1]; 5 mg/kg orally twice daily for seven days): 22%
MTV as % of the initial value ([1]; 5 mg/kg orally twice daily for seven days, end of dosing, Day 9): 78%
MTV increase ([1]; 5 mg/kg orally twice daily for seven days, end of the study, Day 21): 235%
tumor growth inhibition relative to vehicle ([1]; 7 mg/kg orally twice daily for seven days, Day 21): 89%
tumor regression ([1]; 7 mg/kg orally twice daily for seven days): 78%
MTV as % of the initial value ([1]; 7 mg/kg orally twice daily for seven days, end of dosing, Day 9): 22%
MTV increase ([1]; 7 mg/kg orally twice daily for seven days, end of the study, Day 21): 175%
tumor growth inhibition relative to vehicle ([1]; 9 mg/kg orally twice daily for seven days, Day 21): 95%
tumor regression ([1]; 9 mg/kg orally twice daily for seven days): 61%
MTV as % of the initial value ([1]; 9 mg/kg orally twice daily for seven days, end of dosing, Day 9): 39%
MTV increase ([1]; 9 mg/kg orally twice daily for seven days, end of the study, Day 21): 85%
animals with tumor volumes exceeding 1,500 mm^3 euthanized ([1]; Parent Compound A study, 3 mg/kg, cohort of ten): three
deaths ([1]; Parent Compound A study, 4 mg/kg, cohort of ten, two found dead, one euthanized for tumor volume): three
animals with no detectable tumor by the end of the study ([1]; Parent Compound A study, 5 mg/kg, cohort of ten): One
animals with no detectable tumor by the end of the study ([1]; Parent Compound A study, 7 mg/kg, cohort of ten): One
animals with no detectable tumor by the end of the study ([1]; Parent Compound A study, 9 mg/kg, cohort of ten): One
anti-tumor activity in the HT1080 xenograft model (summary statement) ([1]; administered orally, twice daily, all doses tested): significant anti-tumor activity
maximal reduction in median body weight ([1]; over the course of the study, all doses tested, orally twice daily): < 10 % of the initial weight
Tolerability ([1]; xenograft mice, all doses tested, orally twice daily): well tolerated
concentration at 0.25 h ([2]; female, Sprague-Dawley, rat, plasma (hepatic portal vein), po, 0.25 hr after oral Example Compound 35 20 mg/kg, read-out: Median [Par. Cmp. A]): 961 ng/mL
concentration at 0.5 h ([2]; female, Sprague-Dawley, rat, plasma (hepatic portal vein), po, 0.5 hr after oral Example Compound 35 20 mg/kg, read-out: Median [Par. Cmp. A]): 2820 ng/mL
concentration at 1 h ([2]; female, Sprague-Dawley, rat, plasma (hepatic portal vein), po, 1 hr after oral Example Compound 35 20 mg/kg, read-out: Median [Par. Cmp. A]): 2460 ng/mL
concentration at 2 h ([2]; female, Sprague-Dawley, rat, plasma (hepatic portal vein), po, 2 hr after oral Example Compound 35 20 mg/kg, individual rats, read-out: [Par. Cmp. A]): 1800 ng/mL
concentration at 2 h ([2]; female, Sprague-Dawley, rat, plasma (hepatic portal vein), po, 2 hr after oral Example Compound 35 20 mg/kg, read-out: Median [Par. Cmp. A]): 1930 ng/mL
concentration at 4 h ([2]; female, Sprague-Dawley, rat, plasma (hepatic portal vein), po, 4 hr after oral Example Compound 35 20 mg/kg, read-out: Median [Par. Cmp. A]): 1000 ng/mL
concentration at 8 h ([2]; female, Sprague-Dawley, rat, plasma (hepatic portal vein), po, 8 hr after oral Example Compound 35 20 mg/kg, read-out: Median [Par. Cmp. A]): 41 ng/mL
[Par. Cmp. A] ([2]; 0.25 hr after oral Example Compound 35 20 mg/kg, individual rats): 417.4 ng/mL and 2,306.7 ng/mL and 961.4 ng/mL
[Par. Cmp. A] ([2]; 0.5 hr after oral Example Compound 35 20 mg/kg, individual rats): 2,819.4 ng/mL and 2,818.9 ng/mL and 577.7 ng/mL
[Par. Cmp. A] ([2]; 1 hr after oral Example Compound 35 20 mg/kg, individual rats): 1,064.4 ng/mL and 2,455.1 ng/mL and 3,237.2 ng/mL
[Par. Cmp. A] ([2]; 2 hr after oral Example Compound 35 20 mg/kg, individual rats): 2,398.5 ng/mL and 1,930.2 ng/mL
[Par. Cmp. A] ([2]; 4 hr after oral Example Compound 35 20 mg/kg, individual rats): 1,004.3 ng/mL and 2,254.2 ng/mL and 177.4 ng/mL
[Par. Cmp. A] ([2]; 8 hr after oral Example Compound 35 20 mg/kg, individual rats): 41.0 ng/mL and 378.5 ng/mL and 15.9 ng/mL
